Where two headings read alike, the source gives them in different places.

Data set [1] in a line: Phase I open label safety study of intermittent inhalation of 160 ppm gNO in healthy adults. The data set is classed as in vivo, human. From the text:
10 healthy adult volunteer subjects (5 males, 5 females), aged 20 to 62 years, were enrolled in the study after screening their medical history, a physical examination, pulmonary function tests and blood values. Exclusion criteria included individuals less than 19 years of age, pregnant females and unwilling to practice birth control during the study, diagnosed with pulmonary disease, epistaxis, hemoptysis, methemoglobinemia, organ transplant recipient or receiving antibiotic therapy.
After obtaining informed consent, treatment was initiated within 5 days of enrollment. Subjects were housed in a hospital ward and received 160 ppm gNO for 30 minutes every four hours (Q4 h), five times a day, for five consecutive days by inhalation. Subjects returned for follow-up evaluations 3, 7 and 21 days after the final gNO administration. Subject safety was determined by monitoring vital signs, methemoglobin levels, lung function, blood chemistry, hematology, prothrombin time, inflammatory cytokine/chemokines levels and endothelial activation. These parameters were compared to baseline and at various time-points during and after gNO administration.
Subjects were administered gNO through a modified disposable mouthpiece to maximize mixing. Inspiration was spontaneously initiated by the subject from a conventional intermittent positive pressure breathing respirator (Mark-7, Carefusion, USA) in fixed flow mode delivering 48 liters per minute (LPM). Flows of gas were verified with a calibrated mass flow meter (TSI, USA). Gaseous nitric oxide (gNO, obtained at INOmax, Ikaria, USA) at a concentration of 800 ppm delivered at a flow of 12 LPM was titrated into a distal delivery port on the mouth piece connected to the respirator during inspiratory phase only (pressure switch). The Mark 7 respirator was supplied by an air/oxygen blender (Bird Sentry, Carefusion, USA) set to deliver 26% oxygen.
The levels of gNO, NO2, O2 and methemoglobin were monitored during the administration of gNO. […] Inspiratory NO, NO2 and O2 levels were continuously monitored by sampling from the mouthpiece sample port located about 6 millimeters from the mouth of the subject with an AeroNOx (Pulmonox, AB, Canada) NO, NO2 and O2 electrochemical analyzer. Delivery safety was determined by the number of occasions that NO2 exceeded 5 ppm, gNO exceeding 10% variation and O2 dropping below 20% during gNO administration. […]
These parameters were measured continuously during every gNO administration course and for 3.5 hours after the first treatment of the day. Daily serum samples were collected and frozen at −80° C. and the serum […] level was measured using the Griess reagent.
Subjects underwent full pulmonary function tests (PFT), including lung diffusing capacity (DLCO) by a trained technician utilizing a calibrated pulmonary function system (Jaeger MasterScreen, VIASYS Healthcare, USA) on screening and days 2, 8, 12 and 26. […] Effect of gNO on lung function and DLCO was determined by changes from baseline, treatment days and follow up days.
General medical examinations were performed by a pulmonary physician on screening and on days 8, 12 and 26 to obtain oxygenation and vital sign measurements. […] Oxygenation was measured with a pulse oximeter (Rad 57, Masimo Corporation, USA) which was used according to manufacturer's guidelines to measure functional oxygen saturation of arterial hemoglobin (SpO2) and heart rate. […]

In data set [2] the test system is S. aureus. The settings on record: S. aureus on agar; 50-160 ppm gNO, vs medical air; cited from earlier work.
Data set [3] relates to P. aeruginosa. The settings on record: P. aeruginosa on agar; 50-160 ppm gNO, vs medical air; cited from earlier work.
The conditions of data set [4]: rats, cited from earlier work.
For data set [5] the following is noted: healthy humans, cited from earlier work.
In data set [6] the test system is five planktonic species of methicillin resistant S. aureus (MRSA). The settings on record: 1,600 ppm hours of gNO; cited from earlier work.
For data set [7], the system named is bovine respiratory disease. The note with it: cattle; intermittent 30 minute exposures of gNO; cited from earlier work.
Data set [8] relates to chronic, non-healing wound. The note with it: topical 200 ppm gNO; within the first three days of treatment; cited from earlier work.

In the case of `[N]=O` [gNO, nitric oxide], the “accumulative effect on SpMet” value in data set [1] (after five daily treatments for five consecutive days) was “no accumulative or lingering effect on SpMet”. Moreover, the “DLCO, FVC, TLC and RV” value in data set [1] (during the course of the study) is reported as “did not change from baseline measurement”. Further, the “airflow as measured by FEV1 and MMEF” value in data set [1] (during the course of the study) is recorded as “did not differ from baseline”. In addition, the “Ang-2 and Ang-2/Ang-1 ratios” value in data set [1] (plasma) is recorded as “not affected”. For the same compound, the “cytokine levels of TNF, IL-6, IL-8, IL-10, IL-1b and IL-12p70” value in data set [1] (plasma, compared to baseline) was “unaffected”. Further, the “survival (bactericidal trend)” value in data set [2] and in data set [3] was 5-10% in each case. Besides, the mortality entry in data set [4] (groups of 10, 300 ppm gNO, 6 continuous hours per day) is reported as “Six of the animals treated with 300 ppm gNO died during the first 1-2 days”. In addition, the figures for the MetHb levels in data set [4] (400 ppm gNO) and in data set [4] (500 ppm gNO) were 72.5 percents and 67 percents, respectively. For the same compound, the “levels of MetHb” value in data set [5] (inhalation of gNO at 128 ppm for 3 hours) and in data set [5] (inhalation of gNO at 512 ppm for 55 minutes) was above 5% in each case. The “population of planktonic MRSA strains” value in data set [6] was “reduction in the population of all five MRSA planktonic strains”. Also, the “clinical symptoms of bovine respiratory disease” value in data set [7] was “decrease the clinical symptoms of bovine respiratory disease”. For the same compound, in data set [8], the “presence of biofilm in the wound” value was “no longer visibly present”.
